Source: PubChem BioAssay (NCI)
Where “and” joins values, the source holds several entries; their conditions need not be identical. Equal values may be shown once.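 Cells were grown in 96-well plates and exposed to each compound for 48 hours at five concentrations; endpoints were interpolated linearly between bracketing concentrations, or set to the highest concentration if not reached. Abbreviation: GI50, concentration required for 50% inhibition of growth. The concentration for full growth arrest is given as TGI.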

Columns and labels:
Assay in all cases: NCI tumour cell line growth inhibition, 48 h
SNB-75 CNS = tested on: SNB-75 CNS
SNB-19 CNS = tested on: SNB-19 CNS
SK-OV-3 ovarian = tested on: SK-OV-3 ovarian
OVCAR-5 ovarian = tested on: OVCAR-5 ovarian
UO-31 renal = tested on: UO-31 renal
SF-268 CNS = tested on: SF-268 CNS
MDA-MB-231 breast = tested on: MDA-MB-231 breast
HS 578T breast = tested on: HS 578T breast
HCT-116 colon = tested on: HCT-116 colon
RXF 393 renal = tested on: RXF 393 renal

Row | SMILES | TGI (SNB-75 CNS) | TGI (SNB-19 CNS) | TGI (SK-OV-3 ovarian) | TGI (OVCAR-5 ovarian) | TGI (UO-31 renal) | TGI (SF-268 CNS) | TGI (MDA-MB-231 breast) | TGI (HS 578T breast) | TGI (HCT-116 colon) | TGI (RXF 393 renal) | GI50 (SNB-75 CNS) | GI50 (SNB-19 CNS) | GI50 (SK-OV-3 ovarian) | GI50 (OVCAR-5 ovarian) | GI50 (UO-31 renal) | GI50 (SF-268 CNS) | GI50 (MDA-MB-231 breast) | GI50 (HCT-116 colon) | GI50 (RXF 393 renal) | GI50 (HS 578T breast)
1 | COC1=CC(=O)c2c(O)c3c(c(O)c2C1=O)OC1(Oc2c(cc4cc(C)oc(=O)c4c2O)CC1O)C3O (stereo not drawn) | > 100 µM | 62.4 µM | > 100 µM | > 100 µM | > 100 µM | > 100 µM | 54.5 µM | > 100 µM | > 100 µM |  |  |  |  |  |  |  |  |  |  | 
2 | CC(C)COC(=O)N1N=NC2C3CC(=O)C(O3)C21 (stereo not drawn) | > 100 µM | > 100 µM | > 100 µM | > 100 µM | > 100 µM | > 100 µM |  |  | > 100 µM | > 100 µM |  |  |  |  |  |  |  |  |  | 
3 | CO[C@H](C(=O)O[C@H]1C(=O)N2CCC3CCC1C32C)c1ccccc1 (stereo partly drawn) | > 100 µM | > 100 µM | > 100 µM | > 100 µM | > 100 µM | > 100 µM |  |  | > 100 µM | > 100 µM |  |  |  |  |  |  |  |  |  | 
4 | Nc1nc2ccccc2c2[nH]c3ccccc3c12 | 16.4 µM | 3.71 µM | 18.9 µM | 4.11 µM | 2.61 µM | 7.23 µM | 2.57 µM |  | 1.83 µM | 1.48 µM | 5.49 µM | 1.1 µM | 4.91 µM | 1.84 µM | 1.31 µM | 1.97 µM | 1.22 µM | 0.499 µM | 0.311 µM | 
5 | C[C@]12CC[C@H](OC(=O)Cc3ccc(N(CCCl)CCCl)cc3)CC1CC[C@@H]1C2CC[C@]2(C)NC(=O)CCC12 (stereo partly drawn) | 27.4 µM | > 100 µM | 33.8 µM |  | > 100 µM | 33 µM |  |  | 18.5 µM | 24.3 µM |  |  |  |  |  |  |  |  |  | 
6 | CC(=O)O[C@H]1CC[C@@]2(C)C(=CC[C@@H]3C2CC[C@]2(C)C(=O)NC(=O)CC32)C1 (stereo partly drawn) | > 100 µM | > 100 µM | > 100 µM | > 100 µM | > 100 µM | > 100 µM |  |  | > 100 µM | 84.1 µM |  |  |  |  |  |  |  |  |  | 
7 | C[C@]12CC/C(=N\O)C[C@@H]1CC[C@@H]1[C@@H]2CC[C@]2(C)/C(=N/O)CC[C@@H]12 | > 100 µM | > 100 µM | > 100 µM | > 100 µM | 78.4 µM |  | 73.8 µM |  | 58.5 µM | 71.4 µM | 37.3 µM | 79.5 µM | 51.4 µM | 46.1 µM | 31.5 µM |  | 26 µM | 23.3 µM | 34.1 µM | 
8 | CCN1C(=O)/C(=C\c2coc3ccccc3c2=O)SC1=S | > 100 µM | > 100 µM | > 100 µM | > 100 µM | > 100 µM | > 100 µM |  |  | > 100 µM | > 100 µM |  |  |  |  |  |  |  |  |  | 
9 | CC[C@@]1(O)C(=O)OCc2c1cc1n(c2=O)Cc2cc3c([N+](=O)[O-])c(O)ccc3nc2-1 | 1.12 µM | > 27.8 µM | 25 µM | 11.6 µM | 2.3 µM | > 22.3 µM |  |  | 7.11 µM | 2.05 µM | 0.151 µM | 0.0661 µM | 0.614 µM | 0.879 µM | 0.303 µM | 0.073 µM |  | 0.431 µM | 0.328 µM | 
10 | CC1OC(OC23C(=O)CC(C)(O)CC2(O)C=CC2=C3C(=O)c3ccc(C4CC(OC5CCC(OC6CC(O)C(O)C(C)O6)C(C)O5)C(O)C(C)O4)c(O)c3C2=O)CCC1O (stereo not drawn) | 32.5 µM and 29.9 µM | > 100 µM and 51.7 µM | 86.2 µM and 46 µM | 33.1 µM and 34.9 µM | 32.2 µM and 32.4 µM | 31.4 µM and 31.2 µM |  |  | 28.5 µM and 18.6 µM | 26.9 µM and 19.2 µM |  | 50.8 µM and 22.8 µM |  |  |  |  |  | 15.1 µM and 5.78 µM | 13.8 µM and 5.87 µM | 
11 | CN(Cc1ccccc1)c1ncnc2ccc(Br)cc12 |  | 41.9 µM | 30.3 µM | 31.3 µM | 49.5 µM | 27.5 µM |  | 27.8 µM | 23.5 µM | 31 µM |  | 16.8 µM | 14.2 µM | 15.3 µM | 13.3 µM | 10.2 µM |  | 11.1 µM | 13.7 µM | 11.5 µM
12 | Clc1cc2nc[nH]c2cc1Cl | 83.9 µM | > 100 µM | > 100 µM | > 100 µM | > 100 µM | > 100 µM |  |  |  |  |  |  |  |  |  |  |  |  |  | 
13 | CCOC(=O)C1Nc2ccc([N+](=O)[O-])cc2[C@H]2OCC[C@@H]12 (stereo partly drawn) | > 100 µM | > 100 µM | > 100 µM | > 100 µM |  | > 100 µM |  |  | > 100 µM | > 100 µM |  |  |  |  |  |  |  |  |  | 
14 | O=C(NCCN1CCOCC1)Nc1nc2ccc(Sc3nnc4ccc(-c5ccc(F)cc5)nn34)cc2s1 |  | > 100 µM | > 100 µM | > 100 µM | > 100 µM | > 100 µM | > 21.6 µM |  | > 100 µM |  |  | 2.8 µM | > 100 µM | > 39 µM | > 100 µM | > 23.3 µM | 3 µM | 6.88 µM | 0.522 µM | 
15 | COc1ccc(-c2cnc(SCC(=O)c3c(C)n(C)n(-c4ccccc4)c3=O)n2-c2ccc(OC)cc2)cc1 |  | > 50 µM |  | > 50 µM | > 50 µM | > 50 µM | > 50 µM | > 50 µM | > 50 µM | > 50 µM |  | > 50 µM |  | > 50 µM | > 50 µM | > 50 µM | > 50 µM | 20.3 µM | > 50 µM | 42.6 µM
16 | CC(C)C[C@H](NC(=O)[C@H](Cc1ccccc1)NC(=O)c1cnccn1)B(O)O | 0.0266 µM and 0.00698 µM |  |  | 0.0667 µM and 0.0312 µM and < 0.0499 µM | 0.0228 µM and 0.0179 µM |  | 0.00541 µM |  | < 0.0161 µM and 0.00328 µM | < 0.01 µM and 0.00255 µM | 0.00232 µM |  | 0.0187 µM and 0.0085 µM | 0.0026 µM | 0.00193 µM | 0.00288 µM | < 0.0118 µM and 0.00177 µM | 0.00108 µM | 0.00119 µM | < 0.01 µM and 0.00192 µM
17 | Cc1cc(N(CCC#N)CCC#N)ccc1/C=C(\NC(=O)/C=C/c1ccccc1)NC(=O)Nc1ccccc1C |  | > 100 µM |  | > 100 µM | > 100 µM | > 100 µM |  |  | > 100 µM | 63.4 µM |  |  |  |  |  |  |  |  |  | 
18 | O=C(/C=C/c1ccc[nH]1)c1ccccc1 | > 100 µM | > 100 µM | > 100 µM | > 100 µM | > 100 µM | > 100 µM |  |  | > 100 µM | > 100 µM |  |  |  |  |  |  |  |  |  | 
